Entries after “also recorded” stand apart in the source; their conditions may differ.
Tests used:
[1] = tested on: global DNA methylation of adenomas in Apc^Min/+ mice; assay: Anti-5-methylcytidine immunostaining of small intestine adenomas (global DNA methylation); assay type: in vivo
[2] = tested on: intestinal tumors in Apc^Min/+ mice; assay: Intestinal tumor development in Apc^Min/+ mice given drug-containing diets; assay type: in vivo; settings: for decrease in tumor number: analyzed at 12 weeks; for change in tumor size: started before adenoma development (age 4 to 12 weeks)
Procedure: FIG. 1 illustrates the decrease in the number of intestinal tumors in Apc^Min/+ mice given Budesonide- or Sulindac-containing diets for 8 or 4 weeks (from age 4 weeks to age 12 weeks or age 8 weeks to age 12 weeks); bars show % change in tumor number compared to untreated C57BL/6 control mice.
FIG. 2 illustrates the change in size of intestinal tumors in Apc^Min/+ mice that were administered Budesonide- or Sulindac containing diets for 8 or 4 weeks (from age 4 weeks to age 12 weeks or age 8 weeks to age 12 weeks); bars show % change in tumor size compared to untreated C57BL/6 control mice.
Budesonide, a steroidal anti-inflammatory drug active against lung cancer development, was investigated as a drug for CRC. Budesonide was evaluated using the murine model for hereditary CRC (FAP) in humans—Apc^Min/+ mice—which, like FAP patients, carry a germline Apc mutation and which spontaneously develop multiple intestinal tumors. The effects of Budesonide were compared to Sulindac as the “gold standard” for an NSAID drug known to inhibit tumor development in Apc^Min mice. The Apc^Min/+ and control mice (C57BL6) were given Budesonide- or Sulindac-containing diets starting at 4 or 8 weeks of age (corresponding, respectively, to ages before and after intestinal tumor development). At 12 weeks, mice were sacrificed and intestines analyzed for adenomas. […] Without wishing to be bound by any particular theory, it is concluded that Budesonide has strong activity against the development of multiple tumors that would otherwise be induced by a variety of Apc mutations (combinations of inherited 1st hit and acquired 2nd hits), and also regression of many tumors after they had already developed.

[3] = tested on: HT29 (APC mutant) cells; assay: DNA methylation (epigenetic) profiling of HT29 cells; assay type: cell-based, human
Procedure: FIG. 5 illustrates that Budesonide increases DNA methylation in human CRC cells. To determine if Budesonide increases DNA methylation in human CRC cells, epigenetic profiling was done on HT29 (APC mutant) cells in response to Budesonide exposure. […] A statistically significant shift in CpG methylation occurred at 235 unique CpG sites (out of 1.9 M that were analyzed).

[4] = tested on: survivin; assay: Survivin mRNA and protein expression in HT-29 cells (RT-PCR, western blot); assay type: cell-based, human; settings: Sulindac 200 μM
Procedure: RNA and protein expression were measured by RT-PCR and western blot, respectively. FIGS. 3A and 3B show an ethidium bromide-stained gel and graph of quantified data for survivin and Bcl-2 mRNA expression. FIGS. 3C and 3D show a western blot and graph of quantified data for survivin and Bcl-2 protein expression.
Another mechanism attributed to Sulindac's antitumor effects is its ability to induce apoptosis and decrease cell proliferation. This mechanism appears to involve a COX-independent mechanism whereby Sulindac (and other NSAIDs) induce degradation of beta-catenin, inactivation of Tcf-4, reduced expression of an anti-apoptotic protein (survivin; FIG. 3) and increased apoptosis in human CRC cells. […] To that end, survivin and Bcl-2 expression was evaluated in HT-29 cells that were treated with Sulindac (200 μM). RNA and protein expression were measured by RT-PCR and western blot, respectively. FIGS. 3A and 3B show an ethidium bromide-stained gel and graph of quantified data for survivin and Bcl-2 mRNA expression.

[5] = tested on: HT29 CRC cells; assay: Apoptosis in HT29 CRC cells; assay type: cell-based, human
[6] = diet started at 4 weeks of age, prior to establishment of intestinal adenomas
[7] = diet started at 8 weeks of age, after adenoma development

| SMILES | 5-methylcytidine immunostaining signal intensity, increase [1] | proportion of cells staining positive for 5-methylcytidine [1] | decrease in tumor number [2, 6] | decrease in tumor number [2, 7] | change in tumor size [2] | 1 MB domains across the genome showing an increase in methylation versus control ([3]; Budesonide exposure) | unique CpG sites with statistically significant shift in CpG methylation ([3]; out of 1.9 M sites analyzed) | survivin expression [4] | apoptosis [5] |
| --- | --- | --- | --- | --- | --- | --- | --- | --- | --- |
| CCCC1O[C@@H]2C[C@H]3[C@@H]4CCC5=CC(=O)C=C[C@]5(C)[C@H]4[C@@H](O)C[C@]3(C)[C@]2(C(=O)CO)O1 (stereo partly drawn) [Budesonide, budesonide] | 1.9 fold | increase | 88% | 60% | decreased | 69.3% | 235 | – | – |
| CC1=C(CC(=O)O)c2cc(F)ccc2/C1=C\c1ccc([S+](C)[O-])cc1 (stereo not drawn) [Sulindac] | – | – | 90% | 90% | decreased | – | – | monotonic decrease; also recorded: attenuates expression | induces apoptosis |

From patent US20220072013A1, “Pharmaceutical Combinations for the Treatment of Cancer” (CA*TX, Inc., priority 2018, published 2022)
